Measured values: patent US20060135491A1, “Vitamin D3 analog useful for the treatment of osteoporosis” (priority 2004, published 2006)

What was measured:
[1] = test system: NMRI mice; assay: In vivo determination of calcium levels; conditions: for Body Weight / Femur Ca / Serum Ca: 7 consecutive days
Description: Eight week old, male NMRI mice were obtained from the Animal Center of Leuven (Belgium) and fed a vitamin D-replete diet (0.2% calcium, 1% phosphate, 2000 U vitamin D/kg; Hope Farms, Woerden, The Netherlands). […] The control group was injected with vehicle (arachis oil). […] The following parameters were evaluated: serum calcium and femur calcium. Serum calcium was measured by a microcolorimetric assay (Sigma, St. Louis, Mo.). Femurs were removed and femur calcium content was measured in HCl-dissolved bone ash (obtained by heating for 24 hours in an oven at 100° C.), using the same technique as for serum calcium.

[2] = test system: HL-60 cells; assay: Cell differentiation, NBT reduction assay; format: cell-based; conditions: in comparison with 1α,25(OH)2D3 as control (100% activity); 4 days
Description: The vitamin D analog of the present invention was evaluated for its effect on cell differentiation. Falcon tissue chambers were seeded with 4×10^4 cells/cm of HL-60 cells using RPMI 1640 medium supplemented with […] FCS and gentamycin (50 μg/mL),in a final cell volume of 5 mL. The cultures were maintained at 37° C. in an atmosphere of humidified air containing 5% CO2. After 24 hours incubation, the control 1αa,25(OH)2D3 and the compound to be tested were each dissolved in ethanol and added to the cell culture with the final concentration being less than 0.2%. After 4 days, the dishes were shaken to lose adherent cells. The cells were then washed twice in RPMI medium, counted, and then assayed for differentiation markers (NBT reduction assay). Superoxide production was measured as NBT reducing activity as described by Ostrem et al. in Proc. Natl. Acad. Sci. USA, (1987) 84: 2610-2614. HL-60 cells at 1×10^6/mL were mixed with an equal volume of freshly prepared solution of phorbol 12-myristate 13-acetate (200 ng/mL) and NBT (2 μg/mL) and incubated for 30 minutes at 37° C. The percentage of cells containing black formazan deposits was determined using a hemacytometer. […]

[3] = biological target: T1, Human Vitamin D Binding Protein (hDBP) (Homo sapiens, UniProt P02774); assay: Affinity for human vitamin D binding protein, displacement of [3H]1α,25(OH)2D3; conditions: relative affinity at 50% displacement of [3H]1α,25(OH)2D3; 1α,25(OH)2D3 assigned 100%; hDBP 0.18 μM, 3 hours at 4° C.
T1 sequence (P02774 17-474): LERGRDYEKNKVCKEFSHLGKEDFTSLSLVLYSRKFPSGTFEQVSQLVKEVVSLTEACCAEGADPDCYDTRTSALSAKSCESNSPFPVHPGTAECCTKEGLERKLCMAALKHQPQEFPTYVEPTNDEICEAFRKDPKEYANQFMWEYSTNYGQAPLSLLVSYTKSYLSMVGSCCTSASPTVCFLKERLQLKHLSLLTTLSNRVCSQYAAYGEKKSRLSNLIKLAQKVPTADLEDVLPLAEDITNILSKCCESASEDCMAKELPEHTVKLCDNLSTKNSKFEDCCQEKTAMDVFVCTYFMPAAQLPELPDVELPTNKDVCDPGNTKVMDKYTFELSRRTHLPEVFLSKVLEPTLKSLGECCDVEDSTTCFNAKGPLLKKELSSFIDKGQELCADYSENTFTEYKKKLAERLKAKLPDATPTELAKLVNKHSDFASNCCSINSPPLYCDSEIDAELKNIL
Description: The solution was incubated for 3 hours at 4° C. Final phase separation was obtained by adding 0.5 mL of cold dextran-coated charcoal.

[4] = test system: MCF-7 cells; assay: Cell proliferation, [3H]thymidine incorporation; format: cell-based; conditions: in comparison with 1α,25(OH)2D3 as control (100% activity); 72 hours incubation
Description: The compound of the present invention was evaluated for its effect on cell proliferation. […] The cultures were maintained at 37° C. in an atmosphere of humidified air containing 5% CO2. The MCF-7 cells were seeded at approximately 5×10^3 cells/well in the DMEM modified medium in a 96-well microtiter plate. […] Finally, 1 μCi of [^3H]thymidine was added to each well and the cells were harvested after a further 4 hour incubation period. The cells were harvested with a Packard Harvester and the cell count measured by a Packard Topcount System.

[5] = biological target: T2, Vitamin D receptor (VDR) (Sus scrofa, UniProt A3RGC1); conditions: relative affinity at 50% displacement of [3H]1α,25(OH)2D3; 1α,25(OH)2D3 assigned 100%; porcine intestinal mucosa supernatant, 4° C., 20 hours
T2 sequence (A3RGC1 1-427): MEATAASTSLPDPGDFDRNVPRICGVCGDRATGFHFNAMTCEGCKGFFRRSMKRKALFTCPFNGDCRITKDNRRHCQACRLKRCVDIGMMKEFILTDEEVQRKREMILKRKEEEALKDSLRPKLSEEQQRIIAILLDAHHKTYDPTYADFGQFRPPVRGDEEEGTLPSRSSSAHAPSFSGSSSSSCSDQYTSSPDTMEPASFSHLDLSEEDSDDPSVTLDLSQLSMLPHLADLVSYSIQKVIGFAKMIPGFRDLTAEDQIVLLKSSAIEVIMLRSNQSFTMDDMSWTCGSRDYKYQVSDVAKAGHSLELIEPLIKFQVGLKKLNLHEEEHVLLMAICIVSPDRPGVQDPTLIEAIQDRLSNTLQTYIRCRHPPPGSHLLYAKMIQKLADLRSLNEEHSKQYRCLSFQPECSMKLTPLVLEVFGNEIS

[6] = test system: ovariectomized Sprague-Daley rats; assay: Three-month treatment efficacy in ovariectomized rats; format: in vivo; conditions: oral
Description: Efficacy was tested in 6 month old Sprague-Daley rats which were sham-operated or ovariectomized (OVX). Ovariectomized animals were sacrificed after two months as a pre-treatment control group, with remaining animals being treated for three months with vehicle or with (1R,3R)-5-{(E)-(2R,5R)-2-[2-(4-hydroxy-4-methylpentyl)-spiro[4.5]dec-7-ylidene]-ethylidene}-cyclohexane-1,3-diol (at dosages of 0.3, 1,3 or 10 μg/kg/day respectively) by oral administration. At the end of treatment, blood was obtained by cardiac puncture for evaluation of serum calcium levels. Hypercalcemia was identified as a mean value 10% greater than the OVX-vehicle group. Bone efficacy was measured using micro-CT (Scanco μCT 40) evaluation of the vertebral cancellous bone volume compared to either the final OVX-group and/or the pre-treatment OVX group.

| % hDBP binding [3] [%] | % VDR binding [5] [%] | hypercalcemia (mean serum calcium 10% greater than OVX-vehicle group) ([6]; three months, at doses that increased vertebral bone volume) | Compound | Body Weight ([1]; 0.1 μg/kg/day i.p.) [g] | Femur Ca ([1]; 0.1 μg/kg/day i.p.) [mg] | Serum Ca ([1]; 0.1 μg/kg/day i.p.) [mg/dL] | Body Weight ([1]; 0.2 μg/kg/day i.p.) [g] | Femur Ca ([1]; 0.2 μg/kg/day i.p.) [mg] | Serum Ca ([1]; 0.2 μg/kg/day i.p.) [mg/dL] | Body Weight ([1]; 0.4 μg/kg/day i.p.) [g] | Femur Ca ([1]; 0.4 μg/kg/day i.p.) [mg] | Serum Ca ([1]; 0.4 μg/kg/day i.p.) [mg/dL] | estimated serum calcium level as compared with 1α,25(OH)2D3 ([1]; 1α,25(OH)2D3 assigned a value of 100%, i.p., 7 days) [%] | HL-60 cell differentiation, percentage activity (at 50% of the dose response) [2] [%] | Femur Ca ([1]; 5 μg/kg/day i.p.) [mg] | Femur Ca ([1]; 10 μg/kg/day i.p.) [mg] | MCF-7 cell proliferation, percentage activity (at 50% of the dose response) [4] [%] | vertebral cancellous bone volume (micro-CT) ([6]; OVX rats, three months, 0.3, 1,3 or 10 μg/kg/day, vs pre-treatment and final OVX groups) |
| --- | --- | --- | --- | --- | --- | --- | --- | --- | --- | --- | --- | --- | --- | --- | --- | --- | --- | --- |
| – | – | – | C=C1/C(=C\C=C2/CCC[C@]3(C)[C@@H]([C@H](C)CCCC(C)(C)O)CC[C@@H]23)C[C@@H](O)C[C@@H]1O [1α,25(OH)2D3, 1α,25-dihydroxyvitamin D3] | 30.5 | 10.9 | 13.3 | 27.8 | 10.3 | 14.1 | 23.2 | 8.9 | 18.2 | 100 | 100 | – | – | – | – |
| 3 | 10 | did not induce hypercalcemia | CC(C)(O)CCC[C@@H]1CC[C@]2(CCC/C(=C\C=C3C[C@@H](O)C[C@H](O)C3)C2)C1 [(1R,3R)-5-{(E)-(2R, 5R)-2-[2-(4-hydroxy-4-methylpentyl)-spiro[4.5]dec-7-ylidene]-ethylidene}-cyclohexane-1,3-diol] | – | – | – | – | – | – | – | 10.1 | – | – | 200 | 11.3 | 12.3 | 450 | significantly increase vertebral bone volume above pre-treatment and final OVX groups |
